Tested on: T-47D spheroids with HUVEC/MSC, viability
Experiment: Anticancer human tumor T-47D cell line growth inhibition [PI3K];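 further: spheroids exposed to agents for seven days before reading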;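 on viability, T/C: percent of DMSO vehicle control luminescence so 100% = untreated growth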
Conditions: for IC50: curve of first compound; for viability, T/C: stronger effect = lower value
Method in brief: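 High-throughput combination screen: PI3K inhibitors crossed with targeted small molecules on complex spheroids of tumor cells, HUVEC and MSCs at 37 degrees C, 5% CO2. Top concentration was at or near clinical Cmax (otherwise 10 microM), with half-log decrements.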

[1] = second compound 0.0316 µM, first compound 0.0316 µM
[2] = second compound 0.0316 µM, first compound 0.1 µM
[3] = second compound 0.0316 µM, first compound 0.316 µM
[4] = second compound 0.0316 µM, first compound 1 µM
[5] = second compound 0.1 µM, first compound 0.0316 µM
[6] = second compound 0.1 µM, first compound 0.1 µM
[7] = second compound 0.1 µM, first compound 0.316 µM
[8] = second compound 0.1 µM, first compound 1 µM
[9] = second compound 0.316 µM, first compound 0.0316 µM
[10] = second compound 0.316 µM, first compound 0.1 µM
[11] = second compound 0.316 µM, first compound 0.316 µM
[12] = second compound 0.316 µM, first compound 1 µM
[13] = second compound 1 µM, first compound 0.0316 µM
[14] = second compound 1 µM, first compound 0.1 µM
[15] = second compound 1 µM, first compound 0.316 µM
[16] = second compound 1 µM, first compound 1 µM
[17] = second compound 3.16 µM, first compound 0.0316 µM
[18] = second compound 3.16 µM, first compound 0.1 µM
[19] = second compound 3.16 µM, first compound 0.316 µM
[20] = second compound 3.16 µM, first compound 1 µM
[21] = second compound 10 µM, first compound 0.0316 µM
[22] = second compound 10 µM, first compound 0.1 µM
[23] = second compound 10 µM, first compound 0.316 µM
[24] = second compound 10 µM, first compound 1 µM

With `CC(C)NCC(C(=O)N1CCN(c2ncnc3c2C(C)CC3O)CC1)c1ccc(Cl)cc1` (centres undefined) + Cc1nc(NC(=O)N2CCCC2C(N)=O)sc1-c1ccnc(C(C)(C)C(F)(F)F)c1 the IC50 (second compound 0.0316 µM) was over 10000 nM, the IC50 (second compound 0.1 µM) was 7980 nM and the IC50 (second compound 0.316 µM) was over 10000 nM. It also gave an IC50 (second compound 1 µM) of 2120 nM, an IC50 (second compound 3.16 µM) of 585 nM and an IC50 (second compound 10 µM) of under 31.6 nM. It also gave a viability, T/C [1] of 85.2%, a viability, T/C [2] of 79.7% and a viability, T/C [3] of 84.6%. The viability, T/C [4] was 61.1%, the viability, T/C (second compound 0.0316 µM, first compound 3.16 µM) was 58.1% and the viability, T/C (second compound 0.0316 µM, first compound 10 µM) was 55.3%. The viability, T/C [5] was 93.5%, the viability, T/C [6] was 86.4% and the viability, T/C [7] was 81.1%. It also gave a viability, T/C [8] of 62.6%, a viability, T/C (second compound 0.1 µM, first compound 3.16 µM) of 58.1% and a viability, T/C (second compound 0.1 µM, first compound 10 µM) of 47.7%. The viability, T/C [9] was 88.7%, the viability, T/C [10] was 87.8% and the viability, T/C [11] was 73.1%. For the same compound, the viability, T/C [12] was 66%, the viability, T/C (second compound 0.316 µM, first compound 3.16 µM) was 49.8% and the viability, T/C (second compound 0.316 µM, first compound 10 µM) was 55.5%. For the same compound, the viability, T/C [13] was 81.9%, the viability, T/C [14] was 82.5% and the viability, T/C [15] was 79.1%. It also gave a viability, T/C [16] of 62.7%, a viability, T/C (second compound 1 µM, first compound 3.16 µM) of 43.1% and a viability, T/C (second compound 1 µM, first compound 10 µM) of 40.3%. For the same compound, the viability, T/C [17] was 57.5%, the viability, T/C [18] was 57.5% and the viability, T/C [19] was 56.7%. For the same compound, the viability, T/C [20] was 44.1%, the viability, T/C (second compound 3.16 µM, first compound 3.16 µM) was 37% and the viability, T/C (second compound 3.16 µM, first compound 10 µM) was 37.2%. For the same compound, the viability, T/C [21] was 37.4%, the viability, T/C [22] was 32.9% and the viability, T/C [23] was 34.6%. It also gave a viability, T/C [24] of 27%, a viability, T/C (second compound 10 µM, first compound 3.16 µM) of 22.1% and a viability, T/C (second compound 10 µM, first compound 10 µM) of 28.6%.
`CCN1CCN(Cc2ccc(Nc3ncc(F)c(-c4cc(F)c5nc(C)n(C(C)C)c5c4)n3)nc2)CC1` + Cc1nc(NC(=O)N2CCCC2C(N)=O)sc1-c1ccnc(C(C)(C)C(F)(F)F)c1 gave an IC50 (second compound 0.0316 µM) of over 1000 nM, an IC50 (second compound 0.1 µM) of over 1000 nM and an IC50 (second compound 0.316 µM) of over 1000 nM. For the same compound, the IC50 (second compound 1 µM) was over 1000 nM, the IC50 (second compound 3.16 µM) was 8.56 nM and the IC50 (second compound 10 µM) was under 3.16 nM. It also gave a viability, T/C (second compound 0.0316 µM, first compound 0.00316 µM) of 111%, a viability, T/C (second compound 0.0316 µM, first compound 0.01 µM) of 87.8% and a viability, T/C [1] of 89%. It also gave a viability, T/C [2] of 85%, a viability, T/C [3] of 80.9% and a viability, T/C [4] of 92.7%. For the same compound, the viability, T/C (second compound 0.1 µM, first compound 0.00316 µM) was 100%, the viability, T/C (second compound 0.1 µM, first compound 0.01 µM) was 73.7% and the viability, T/C [5] was 82.1%. It also gave a viability, T/C [6] of 72.3%, a viability, T/C [7] of 80.7% and a viability, T/C [8] of 85.2%. The viability, T/C (second compound 0.316 µM, first compound 0.00316 µM) was 96%, the viability, T/C (second compound 0.316 µM, first compound 0.01 µM) was 73.4% and the viability, T/C [9] was 70.2%. It also gave a viability, T/C [10] of 67%, a viability, T/C [11] of 64.4% and a viability, T/C [12] of 73.2%. It also gave a viability, T/C (second compound 1 µM, first compound 0.00316 µM) of 78.9%, a viability, T/C (second compound 1 µM, first compound 0.01 µM) of 64.5% and a viability, T/C [13] of 55.9%. For the same compound, the viability, T/C [14] was 51.9%, the viability, T/C [15] was 58.9% and the viability, T/C [16] was 70.3%. It also gave a viability, T/C (second compound 3.16 µM, first compound 0.00316 µM) of 61.2%, a viability, T/C (second compound 3.16 µM, first compound 0.01 µM) of 49.2% and a viability, T/C [17] of 44.2%. For the same compound, the viability, T/C [18] was 39.3%, the viability, T/C [19] was 47.1% and the viability, T/C [20] was 53.2%. The viability, T/C (second compound 10 µM, first compound 0.00316 µM) was 30.5%, the viability, T/C (second compound 10 µM, first compound 0.01 µM) was 26% and the viability, T/C [21] was 24.5%. For the same compound, the viability, T/C [22] was 27.2%, the viability, T/C [23] was 33.1% and the viability, T/C [24] was 38.6%.
